Experimental data reported in US11209421B2, “Cytidine deaminase expression level in cancer as a new therapeutic target” (CENTRE NATIONAL DE LA RECHERCHE SCIENTIFIQUE, priority 2016, dated 2021).
Like-named read-outs stand apart in the source and are kept apart here.

Experiments:
HCC-1954 cells = assay: MTT cell viability, HCC-1954 (gemcitabine after 5-Aza-dC pretreatment); type: cell-based, human; settings: pretreatment 96 h with 1 μM 5-Aza-dC versus untreated, then gemcitabine 72 hours
Procedure: (§1) Cell viability was carried out with 3-(4,5-dimethyl-2-thiazolyl)-2,5 diphenyl-2H-tetrazolium bromide (MTT-Life Technologies) in 96-well microplates. The functionality of CDA was assessed by plating HCC-1954 and IGROV-1 cells at densities of 2000 and 3000 cells/well, respectively, on the day before pretreatment and at a density of 800 cells/well for control conditions. Cells were then left untreated or subjected to pretreatment with 1 μM 5-Aza-dC for 96 h. The cells were washed twice with PBS buffer, placed in fresh medium and incubated for 72 hours in the presence of various concentrations of gemcitabine, from 0.001 to 1 μM (Sigma Aldrich). The data were normalized to corresponding controls, for each condition.

IGROV-1 cells = assay: MTT cell viability, IGROV-1; type: cell-based, human; settings: pretreatment 96 h with 1 μM 5-Aza-dC versus untreated, then gemcitabine 72 hours
Procedure: as §1

CDA-depleted HeLa cells = assay: Images of CDA-depleted HeLa cells 24 h after Dasatinib treatment; type: cell-based, human; settings: 24 h after 0.5 or 1 μM
CDA mRNA = assay: RT-qPCR analysis of the induction of CDA expression; type: cell-based, human; settings: 96 hours, 2.5 μM 5-Aza-dC
Procedure: For evaluation of the induction of CDA expression, RNA was isolated from cell lines continuously treated with 1 or 2.5 μM of 5-Aza-2′-deoxycytidine (5-Aza-dC—Sigma Aldrich) for 96 hours.
The procedure for real-time PCR (RT-qPCR) was as described by Gemble et al. (cf. Reference 19). In brief, total RNA was extracted from PDX tissues and from cell lines with the RNeasy Mini Kit (Qiagen). Reverse transcription was performed on 1 μg of RNA with the GoScript enzyme (Promega). The cDNA obtained was used at a dilution of 1/10 for real-time PCR with the SYBER Green supermix reagent (Biorad) in a Biorad CFX96 machine. Each sample was run in triplicate. Relative expression was determined by the 2^−ΔΔCt method. GAPDH and TBP were used as internal controls.

CDA protein = assay: Western blot analysis of the induction of CDA expression; type: cell-based, human; settings: HCC-1954 and IGROV-1, 1 μM 5-Aza-dC for 96 h
Procedure: For western blotting, cells were harvested by centrifugation and lysed in 8 M urea, 50 mM Tris-HCl, pH 7.5 and 150 mM β-mercaptoethanol buffer supplemented with protease inhibitor (ThermoScientific). They were then sonicated and heated. Protein concentration was estimated with the BCA kit (Pierce) and the equivalent of 20 μg or protein per cell lysate was run on a 4-12% Bis-Tris pre-cast gel (Life Technologies). The proteins were then transferred to PVDF membranes, which were probed with the appropriate antibody. Protein bands were visualized with a CCD camera (BioRad).

[1] = system: breast cancer cell lines (MDA-MB-231, HCC-1954, MCF-7, BT-20) and IGROV-1
Procedure: D, Cell viability, as assessed in MTT assays on breast cancer cell lines (MDA-MB-231, HCC-1954, MCF-7, BT-20) and an ovarian cell cancer line (IGROV-1) after 96 h of treatment with 5-Aza-dC. Error bars represent the mean±SD of 3 independent experiments for IGROV-1 and 2 experiments for the other cell lines. […] The dashed lines indicate the 5-Aza-dC concentrations used in this study.
Cell viability was carried out with 3-(4,5-dimethyl-2-thiazolyl)-2,5 diphenyl-2H-tetrazolium bromide (MTT-Life Technologies) in 96-well microplates.

MDA-MB-231 xenograft = settings: cited from earlier work
MDA-MB-468 xenograft = settings: cited from earlier work; for median tumor growth inhibition: compared to control
[2] = MDA-MB-231 xenograft mice, 70 mg/kg

## Nc1ccn([C@@H]2O[C@H](CO)[C@@H](O)C2(F)F)c(=O)n1 [gemcitabine]
HCC-1954 cells
  gemcitabine resistance (cell survival, MTT): significant increase in gemcitabine resistance
IGROV-1 cells
  gemcitabine resistance (cell survival, MTT): significant increase in gemcitabine resistance

## Cc1nc(Nc2ncc(C(=O)Nc3c(C)cccc3Cl)s2)cc(N2CCN(CCO)CC2)n1 [NSC 759877, Dasatinib]
CDA-depleted HeLa cells
  effect on cell morphology (images): no effect

## Nc1ncn([C@H]2C[C@H](O)[C@@H](CO)O2)c(=O)n1 [5-Aza-dC, 5-Aza-2′-deoxycytidine]
CDA mRNA; 7 CDA-deficient cell lines
  induction of CDA mRNA levels: up to 1000 fold
CDA mRNA; MDA-MB-231, HOP-92, HCC-1143 and HCC-1937 control cell lines with constitutively high CDA
  induction of CDA transcript levels: two-fold
CDA protein
  induction of CDA protein production: strongly induced the production of a functional CDA protein
[1]
  toxicity (cell viability, MTT): without major toxicity

## Cc1c(F)c(N)c2c(=O)cc(-c3ccc(NC(=O)[C@@H](N)CCCCN)c(F)c3)oc2c1F [AFP464]
MDA-MB-231 xenograft; MDA-MB-231 xenograft mice, 35 mg/kg
  tolerance: well tolerated
MDA-MB-231 xenograft; [2]
  body weight loss: up to 15%
  death of mice during the course of treatment: 1 of 7
MDA-MB-231 xenograft; MDA-MB-231 xenograft, AFP464 alone, 35 or 70 mg/kg
  antitumor activity (inhibition): 0%
MDA-MB-468 xenograft; MDA-MB-468 xenograft mice, 35 and 50 mg/kg
  tolerance: well tolerated
MDA-MB-468 xenograft; MDA-MB-468 xenograft, 35 or 50 mg/kg i.v., compared to vehicle control
  tumor growth: statistically significantly delayed tumor growth
MDA-MB-468 xenograft; MDA-MB-468 xenograft, after one cycle of treatment
  median tumor growth inhibition: 57%
MDA-MB-468 xenograft; MDA-MB-468 xenograft, after two cycles of treatment
  median tumor growth inhibition: 54%
